3 compounds from patent US9562053B2, “Benzo-fused heterocyclic derivatives useful as agonists of GPR120” (Janssen Pharmaceutica NV, priority 2013, dated 2017) can be followed below.

What is called EC50 is the concentration at which the effect is half-maximal.

What all share (assay type): cell-based
In assay [1] the target is T1, Human GPR120 short form (Homo sapiens, UniProt Q5NUL3).
T1 construct: expressed in transfected cells
T1 sequence (Q5NUL3 1-361): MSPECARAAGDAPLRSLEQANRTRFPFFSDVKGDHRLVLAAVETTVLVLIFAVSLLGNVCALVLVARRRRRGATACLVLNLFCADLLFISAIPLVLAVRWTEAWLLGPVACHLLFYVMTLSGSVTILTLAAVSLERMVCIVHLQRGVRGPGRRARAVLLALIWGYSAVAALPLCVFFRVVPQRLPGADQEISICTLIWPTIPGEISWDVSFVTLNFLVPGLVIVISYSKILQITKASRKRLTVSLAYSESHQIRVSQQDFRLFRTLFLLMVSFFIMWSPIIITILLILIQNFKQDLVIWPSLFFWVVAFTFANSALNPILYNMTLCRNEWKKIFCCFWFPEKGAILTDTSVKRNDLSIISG
Description: Human GPR120 in Calcium Flux Assay, Procedure Calcium B (4200 cells/well). The source says: (§1) This in vitro assay serves to assess test compound agonist activity against the short splice variant (SVS with Accession number NM_001195755.1 confirmed by sequencing data) of the GPR120 receptor. The Human Short splice variant #2 (NM_001195755.1) is missing an in-frame coding exon compared to variant 1 (the Human Long splice variant NM_181745.3), resulting in a shorter isoform (GPR120-S) lacking a 16 aa protein segment compared to isoform GPR120-L. The assay platform utilizes HEK-293 cells stably transfected to express the Human GPR120 short form. These cells are first loaded with the Ca^+2 sensitive dye, Fluo-4 NW. Upon stimulation, intracellular released Ca^+2 can bind to the dye and alter its fluorescence intensity. This increase in fluorescence signal, and thus the flux in intracellular [Ca^+2], is detected and quantitated by fluorescence imaging using a FLIPR reader. The effect of the agonist is measured as a function of concentration and used to calculate an EC50 based upon a response curve.
In this procedure 4200 cells/well were employed.
(§2) A Human GPR120 clone (Genbank accession number NM_001195755.1) was placed into the pcDNA3.1 mammalian expression vector carrying the neomycin resistance gene. A stable mammalian cell was generated by placing the above clone into a HEK293 background. Clonal cells responding to long chain fatty acids had expression levels of GPR120 confirmed by RT-qPCR. Human HEK-GPR120 cells were cultured in Dulbecco's Modified Eagle's Medium (DMEM)/F12 medium supplemented with 10% fetal bovine serum (FBS), 1% L-Glutamine and 1% penicillin/streptomycin and 0.5 mg/ml G-418. Cells were split 2 times a week to keep the cells in the log-phase growth.
(§3) In preparation for the assay, HEK cells stably transfected with Human GPR120 (2.5K cells per well in 25 uL growth medium) were seeded into 384-well plates and then incubated overnight (37° C., 5% CO2). The next day, the media was changed to 20 μl assay buffer and the cell starved for 1 h at 37° C. The dye loading solution (2× dye) was prepared using 10 ml assay buffer, 100 μl of 250 mM probenecid, 1 bottle of Component A, and 20 μl of dye in DMSO. Twenty μl of the 2× dye loading buffer was then added to each well. The plates were incubated at 37° C. for 30 min, then at room temperature for an additional 15 minutes, before performing the assay on FLIPR.
(§4) Test compounds were prepared in assay buffer (2 μl of test compound+198 μl assay buffer, final DMSO in assay plate is 0.2%) at the desired concentration, more particularly at 100 μM, 50 μM, 25 μM, 12.5 μM, 6.25 μM, 3.125 μM, 1.562 μM, 0.781 μM, 0.391 μM, 0.195 μM, 0.098 μM, 0.049 μM, 0.024 μM and 0.012 μM.
(§5) The assay was performed on a FLIPR plate reader using the following parameters. Baseline was read for 10 seconds at 1 sec intervals. The program was set to transfer 10 μL of ligand from compound plate to cell plate after baseline reading. Aspiration was executed at: 10 μl/sec speed, 4.6 μl height; Dispensing was executed at: 30 μl/sec speed, 45 μl height. After compound addition, each well was read for 300 sec, with measurements collected at 1 sec intervals.
(§6) The kinetic data from the FLIPR was based upon a 5 minute window for data collection. The fluorescence of each sample well was used for individual calculations of a normalized RFU value, which was defined as maximum response minus the minimum response. The normalized fluorescence reading (RFU) was calculated as follows: RFU=Fmax−Fmin
(§7) The data were fitted to a sigmoidal dose-response curve with a variable Hill slope (<2) using nonlinear regression with GraphPad Prism 5.0 to calculate the EC50 values. The Fitting Equation was: Y=Bottom+(Top−Bottom)/(1+10^((LogEC50−X)*HillSlope)), where X is the log of the concentration and Y is the response.
For orientation: Calcium flux is commonly read through the fluorescence of an indicator in the cells.

Assay [2] concerns the target T1, Human GPR120 short form. In words: Human GPR120 in Calcium Flux Assay, Procedure Calcium A (2500 cells/well).
From the text: as §1
In this procedure 2500 cells/well were employed.
as §2, §3, §4, §5, §6, §7

Assay [3] has as its target T2, short form of the GPR120 receptor (Homo sapiens, UniProt Q5NUL3).
T2 construct: host or cells: PathHunter CHO-K1 GPR120S β-Arrestin Cell Line
T2 sequence (Q5NUL3 1-361): T1 sequence (Q5NUL3 1-361)
In words: Human GPR120 DiscoveRx PathHunter Beta-Arrestin Assay, Procedure β-arrestin B (5000 cells/well). From the text: The binding of an agonist (medium/long chain fatty acids or small molecule agonists) to the G-protein-coupled receptor GPR120 activates phospholipase C, leading to release of intracellular Ca^+2 through the generation of inositol 1,4,5-trisphosphate (InsP3 or IP3). GPR120 activation can also trigger intracellular signaling via recruitment of β-Arrestin. In the present method, agonist-induced activation of the human GPR120 receptor is monitored through the use of PathHunter CHO-K1 GPR120 β-Arrestin Cell Line engineered by DiscoveRx, as detailed below. The cell lines are designed to co-express both the ProLink/Enzyme Donor (PK)-tagged GPCR and the Enzyme Activator (EA)-tagged β-Arrestin fusion proteins. Upon GPR120 receptor stimulation/activation, the EA-tagged β-Arrestin portion is translocated to the tagged receptor, where the two enzyme fragments are brought within close proximity. Under these conditions, these fragments can interact and form an active Beta-gal enzyme complex through Enzyme Fragment Complementation (EFC). This active Beta-gal complex can enzymatically hydrolyse the substrate to produce a detectable light signal; therefore, activation as a function of agonist concentration can be expressed as an EC50 value to determine relative compound activities. This in vitro assay therefore serves to assess compound agonist activity of the GPR120.
In Procedure β-arrestin B the cells used were PathHunter CHO-K1 GPR120S β-Arrestin Cell Line, expressing the short form of the GPR120 receptor (Accession #NM_181745), with 5000 cells/well.
The selected CHO-K1 GPR120 β-Arrestin cells were cultured in Ham's F12 media supplemented with 10% fetal bovine serum (FBS), 1% Glutamine, 1×p/s, 800 μg/ml G418 and 300 μg/ml Hygromycin B (for selection). Cell stocks were maintained and grown in a sub-confluent state using standard cell culture procedures. The day before the experiment, the cells were harvested with non-enzymatic cell dissociation buffer and re-suspended in complete growth media at the desired concentration. A Corning 384-plate was then seeded with the proper number of cells in a volume of 25 μL, per well. The seeded plates were incubated overnight at 37° C.
On the day of the experiment, the Assay Buffer containing (a) HBSS with Ca^++ and Mg^++, (b) 20 mM HEPES, and (c) 0.1% BSA stabilizer (pH 7.4) was prepared. The growth medium was gently removed from the cell plates and 20 μL of Assay Buffer added to each well. The plate was then incubated at 37° C. for 60 mins. Test compounds were serially diluted in Assay Buffer to desired concentrations (more particularly, to one or more of the following μM concentrations: 25 μM, 12.5 μM, 6.25 μM, 3.125 μM, 1.562 μM, 0.781 μM, 0.391 μM, 0.195 μM, 0.098 μM, 0.049 μM, 0.024 μM, 0.012 μM). Five μl of compound dilution was then added to each well and the plate incubated at 37° C. for 90 mins. The detection reagents were prepared according to the manufacture's instruction. Twelve μL of the detection reagents were added to each well and the plate incubated at room temperature for 60 mins.
The plates were read on an EnVision instrument, using Protocol name: Luminescence, Plate type: 384 Costar, Measurement height: 3 mm, Measurement time: 1 s, Aperture: 384 Plate aperture. The % activity relative to the positive control was calculated using the following equation:
The % Activity values were plotted versus the concentration of test compound and fitted to a sigmoidal dose-response curve with a Hill slope=1 (fixed value) using nonlinear regression with GraphPad Prism 5.0 to calculate the EC50 values. The Fitting Equation was: Y=Bottom+(Top−Bottom)/(1+10^((LogEC50−X)*HillSlope)), where X is the log of the concentration and Y is the response.

Regarding `Cc1c(CCC(=O)O)ccc(OCc2cc(Cl)cc3sc(C(C)(C)C)nc23)c1C` [Compound 104, 3-{4-[(2-tert-Butyl-6-chloro-1,3-benzothiazol-4-yl)methoxy]-2,3-dimethylphenyl}propanoic acid], the concentration giving a half-maximal response (EC50) in assay [1] worked out at 499 nM; in assay [2] it was 1880 nM; in assay [3] it was 1550 nM.
Taken in the same sequence, the figures for `CCc1nc2c(COc3ccc(CCC(=O)O)c(C)c3C)cc(F)cc2s1` [Compound 105, 3-{4-[(2-Ethyl-6-fluoro-1,3-benzothiazol-4-yl)methoxy]-2,3-dimethylphenyl}propanoic acid] were 91 nM, 204 nM and 402 nM.
Consider `Cc1c(CCC(=O)O)ccc(OCc2cc(F)cc3sc(C(C)C)nc23)c1C` [Compound 111, 3-(4-{[6-Fluoro-2-(1-methylethyl)-1,3-benzothiazol-4-yl]methoxy}-2,3-dimethylphenyl)propanoic acid], for which the EC50 in assay [1] stood at 107 nM; in assay [3], 299 nM.
